Data on 5 molecules can be found in article PMC2597681 (Biochemistry, 2008).

Molecules are shown by their SMILES. pIC50: −log10 of the molar value. Like-named read-outs stand apart in the source and are kept apart here.

Assay [1] has as its system 49 kDa subunit and an unidentified subunit of complex I. The assay can be described thus: Suppression of specific binding of [125I]AFP to SMP. Conditions: [125I]AFP 6 nM; competitor 60, 600 or 6,000 nM; SMP 1.0 mg of protein/mL. On the set-up: species or system bovine.
Assay [2] deals with T1, ND1 subunit (Bos taurus, UniProt P03887+P17694). The conditions noted are these: ref [19]; cited from earlier work.
T1 sequence (P03887 whole entry): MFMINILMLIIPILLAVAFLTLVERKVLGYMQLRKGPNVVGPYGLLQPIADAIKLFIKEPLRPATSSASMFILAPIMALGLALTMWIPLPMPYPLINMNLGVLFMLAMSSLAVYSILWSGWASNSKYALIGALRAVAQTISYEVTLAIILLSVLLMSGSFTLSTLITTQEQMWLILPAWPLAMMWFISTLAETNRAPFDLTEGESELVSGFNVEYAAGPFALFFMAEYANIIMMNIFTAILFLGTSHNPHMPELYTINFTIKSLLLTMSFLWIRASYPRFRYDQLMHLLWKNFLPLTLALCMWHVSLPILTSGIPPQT
T1 sequence (P17694 34-463): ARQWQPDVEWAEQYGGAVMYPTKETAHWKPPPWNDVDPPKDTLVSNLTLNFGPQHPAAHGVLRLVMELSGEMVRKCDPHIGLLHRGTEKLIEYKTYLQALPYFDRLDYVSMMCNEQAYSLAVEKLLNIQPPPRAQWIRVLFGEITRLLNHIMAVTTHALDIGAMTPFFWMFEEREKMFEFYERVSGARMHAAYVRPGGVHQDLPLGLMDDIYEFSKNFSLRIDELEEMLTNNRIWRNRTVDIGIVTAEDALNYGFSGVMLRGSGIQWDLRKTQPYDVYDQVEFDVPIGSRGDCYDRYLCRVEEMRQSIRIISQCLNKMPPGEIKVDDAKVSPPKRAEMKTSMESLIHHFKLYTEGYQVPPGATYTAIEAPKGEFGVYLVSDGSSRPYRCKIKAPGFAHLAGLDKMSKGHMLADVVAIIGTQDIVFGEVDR
T1 sequence (P42026 38-216 partner): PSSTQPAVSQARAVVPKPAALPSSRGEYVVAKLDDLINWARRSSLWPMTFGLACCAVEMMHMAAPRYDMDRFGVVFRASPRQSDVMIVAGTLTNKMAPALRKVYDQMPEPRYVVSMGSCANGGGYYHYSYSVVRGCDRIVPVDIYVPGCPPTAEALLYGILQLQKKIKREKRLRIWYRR
For assay [3], the target named is bovine heart mitochondrial complex I (ubiquinol-NAD+ oxidoreductase activity) (Bos taurus, UniProt P03887+P17694). The conditions noted are these: ref [27]; cited from earlier work.
Chain of bovine heart mitochondrial complex I (ubiquinol-NAD+ oxidoreductase activity) (P17694 34-463): as the sequence (P17694 34-463) above
Chain of bovine heart mitochondrial complex I (ubiquinol-NAD+ oxidoreductase activity) (P03887 whole entry): as the sequence (P03887 whole entry) above
Chain of bovine heart mitochondrial complex I (ubiquinol-NAD+ oxidoreductase activity) (P42026 38-216 partner): as the sequence (P42026 38-216 partner) above
Assay [4] deals with T2, bovine heart mitochondrial complex I (NADH-ubiquinone oxidoreductase) (Bos taurus, UniProt P03887+P17694). Conditions: ref [27]; cited from earlier work.
T2 sequence (P17694 34-463): as the sequence (P17694 34-463) above
T2 sequence (P03887 whole entry): as the sequence (P03887 whole entry) above
T2 sequence (P42026 38-216 partner): as the sequence (P42026 38-216 partner) above
The target of assay [5] is T1, ND1 subunit. As to the kind of experiment: Suppression of specific photoaffinity labeling of the ND1 subunit by [125I]TDA. Conditions: [125I]TDA 3 nM; SMP 0.3 mg of protein/mL. It is filed as binding, bovine.
In assay [6] the target is T2, bovine heart mitochondrial complex I (NADH-ubiquinone oxidoreductase). The assay can be described thus: NADH oxidase activity in SMP. In kind it is biochemical.

With `C=C(C)[C@H]1Cc2c(ccc3c2O[C@@H]2COc4cc(OC)c(OC)cc4[C@@H]2C3=O)O1` [rotenone], in assay [1], the “Suppression of specific labeling of the two subunits by [125I]AFP (in words)” value (“Suppression of specific labeling … (in words)” below) is “suppressed the radiolabeling”.

For the molecule `C/C=C(\C)[C@H](O)[C@H](C)/C=C(C)/C=C/C/C(C)=C/Cc1nc(OC)c(OC)c(O)c1C` [piericidin A], the “Suppression of specific binding of [125I]TDA to ND1 (in words)” value (shortened to “Suppression … to ND1 (in words)”) on ND1 subunit [2] was “completely suppress”. In addition, in assay [3], the “IC50 (R)/IC50 (F), ratio of IC50 (reverse)/IC50 (forward)” value is 0.59 and the “IC50 values, Reverse electron transfer” value is 48 ± 4.3 pmol inhibitor/mg of protein. The “IC50 values, Forward electron transfer” value in assay [4] was 81 ± 7.1 pmol inhibitor/mg of protein.

With `Cc1nn(C)c(Oc2ccccc2)c1C=NOCc1ccc(C(=O)OC(C)(C)C)cc1` [fenpyroximate], the “Suppression … to ND1 (in words)” value at ND1 subunit [2] is reported as “completely suppress”. The “Suppression of specific labeling … (in words)” value in assay [1] is recorded as “suppressed the radiolabeling”.

Take `CC(C)(C)c1ccc(CSc2cnn(C(C)(C)C)c(=O)c2Cl)cc1` [pyridaben]: the “Suppression … to ND1 (in words)” value on ND1 subunit [2] is on record as “completely suppress”. In addition, in assay [1], the “Suppression of specific labeling … (in words)” value is “suppressed the radiolabeling”.

As for `CCCCCCCCCCC(O)C1CCC(C2CCC(C(O)CCCCCCCCCCC(O)CC3=CC(C)OC3=O)O2)O1` (stereo not drawn) [Bullatacin, bullatacin], in assay [3], the “IC50 (R)/IC50 (F), ratio of IC50 (reverse)/IC50 (forward)” value is 0.61 and the “IC50 values, Reverse electron transfer” value is 28 ± 4.4 pmol inhibitor/mg of protein. In addition, at ND1 subunit [5], the “Suppression … to ND1 (in words)” value was “suppressed the specific binding more efficiently than the piperazines”. In addition, in assay [6], the pIC50 was 9.07. Moreover, the “IC50 values, Forward electron transfer” value in assay [4] is reported as 46 ± 5.2 pmol inhibitor/mg of protein. For the same molecule, in assay [1], the “Suppression of specific labeling … (in words)” value is given as “suppressed the radiolabeling”.

Broadly, the pIC50 is the IC50 on a negative log10 scale, so that one unit is a factor of ten. Low readings indicate a large IC50, high ones a small IC50.
